Assay results reported in ChEMBL document CHEMBL4145539, “Phenylpyridine-2-ylguanidines and rigid mimetics as novel inhibitors of TNFα overproduction: Beneficial action in models of neuropathic pain and of acute lung inflammation” (Eur J Med Chem, 2018).
Calls of active or inactive are those of the source. No cut-off for these calls is given here.

Assays:
PBMC [1] = assay: Anti-inflammatory activity in human PBMC assessed as inhibition of LPS-induced TNFalpha production at 10 uM after 24 hrs by ELISA relative to control; format: functional
[2] = Cytotoxicity against human PBMC assessed as cell viability at 10 um after 24 hrs by WST-1 assay relative to control; format: cell-based; settings: PBMC (peripheral blood mononuclear cells), read-out: Activity
PBMC [3] = assay: Anti-inflammatory activity in human PBMC assessed as inhibition of LPS-induced IL-1beta production at 10 uM after 24 hrs by ELISA relative to control; format: functional
Mus musculus [4] = assay: Toxicity in C57BL/6J mouse model of sciatic nerve ligation-induced neuropathic pain assessed as body weight loss at 5 mg/kg, ip bid for 17 consecutive days starting from 2 to 3 weeks post surgery relative to control; format: organism-based; settings: in vivo
Mus musculus [5] = assay: Toxicity in C57BL/6 mouse assessed as effect on number of inflammatory cells recovered in BALF at 5 mg/kg, ip bid administered 1 hr before and 10 hrs after LPS treatment measured 24 hrs post LPS treatment by flow cytometry; format: organism-based; settings: in vivo
Mus musculus [6] = assay: Toxicity in C57BL/6J mouse model of sciatic nerve ligation-induced neuropathic pain assessed as body weight loss at 1 mg/kg, ip bid for 17 consecutive days starting from 2 to 3 weeks post surgery; format: organism-based; settings: in vivo
Mus musculus [7] = assay: Antiallodynic activity in C57BL/6J mouse model of sciatic nerve ligation-induced neuropathic pain assessed as increase in paw withdrawal latency time at 5 mg/kg, ip bid for 17 consecutive days starting from 2 to 3 weeks post surgery measured on day 11 during compound dosing by Von Frey test; format: functional, organism-based
Mus musculus [8] = assay: Antiallodynic activity in C57BL/6J mouse model of sciatic nerve ligation-induced neuropathic pain assessed as increase in paw withdrawal latency time at 1 mg/kg, ip bid for 17 consecutive days starting from 2 to 3 weeks post surgery by Von Frey test; format: functional, organism-based
PBMC [9] = assay: Anti-inflammatory activity in human PBMC assessed as inhibition of LPS-induced TNFalpha production after 24 hrs by ELISA; format: functional, cell-based
PBMC [10] = assay: Anti-inflammatory activity in human PBMC assessed as inhibition of LPS-induced IL-1beta production after 24 hrs by ELISA; format: functional, cell-based
Mus musculus [11] = assay: Anti-inflammatory activity in LPS-induced acute lung inflammation C57BL/6 mouse model assessed as inhibition of neutrophils recruitment in BALF at 5 mg/kg, ip bid administered 1 hr before and 10 hrs after LPS treatment measured 24 hrs post LPS treatment by flow cytometry relative to control; format: functional; settings: C57BL/6, ip
Mus musculus [12] = assay: Antiallodynic activity in C57BL/6J mouse model of sciatic nerve ligation-induced neuropathic pain assessed as increase in paw withdrawal latency time at 1 mg/kg, ip bid for 17 consecutive days starting from 2 to 3 weeks post surgery measured on day 16 during compound dosing by Von Frey test; format: functional, organism-based
Mus musculus [13] = assay: Anti-inflammatory activity in LPS-induced acute lung inflammation C57BL/6 mouse model assessed as inhibition of lymphocytes recruitment in BALF at 5 mg/kg, ip bid administered 1 hr before and 10 hrs after LPS treatment measured 24 hrs post LPS treatment by flow cytometry relative to control; format: functional; settings: C57BL/6, ip
Mus musculus [14] = assay: Toxicity in C57BL/6J mouse model of sciatic nerve ligation-induced neuropathic pain assessed as behavioral changes at 1 to 5 mg/kg, ip bid for 17 consecutive days starting from 2 to 3 weeks post surgery; format: organism-based; settings: in vivo
Mus musculus [15] = assay: Anti-inflammatory activity in LPS-induced acute lung inflammation C57BL/6 mouse model assessed as inhibition of TNFalpha level in BALF at 5 mg/kg, ip bid administered 1 hr before and 10 hrs after LPS treatment measured 24 hrs post LPS treatment by ELISA relative to control; format: functional; settings: C57BL/6, ip

Compound	inhibition at 10 µM (PBMC [1]) [%]	viability at 24 h, 10 µM [2] [%]	inhibition at 10 µM (PBMC [3]) [%]	further results
N=C(N)Nc1ccc(-c2ccccc2Cl)cn1	82	55	96	–
N=C(N)Nc1ncccc1-c1ccccc1	11	108	1	–
NC(N)=Nc1cc(-c2ccccc2)ccn1	–	72	–	Activity (Mus musculus [4]): 5%; Activity (Mus musculus [5]): Non-Toxic; Activity (Mus musculus [6]): Non-Toxic
CNCCC=C1c2ccccc2CCc2ccccc21	–	–	–	Activity (Mus musculus [7]): Active; Activity (Mus musculus [8]): inactive
N=C(N)Nc1cccc(-c2ccccc2Cl)n1	47	74	9	IC50 (PBMC [9]): 19.2 µM; IC50 (PBMC [10]): > 30 µM
N=C(N)Nc1cc(-c2ccc(C(F)(F)F)cc2)ccn1	71	24	98	–
NC1=Nc2ccc(-c3ccccc3)cc2CN1	22	90	–	–
NC(=S)Nc1cc(-c2ccccc2)ccn1	4	86	1	–
N=C(N)Nc1cccc(-c2ccc(Cl)cc2)n1	72	35	77	–
COc1cccc(-c2ccc(NC(=N)N)nc2)c1	25	116	4	–
NC1=Nc2cccc(-c3ccccc3)c2CN1	7	111	0	–
N=C(N)Nc1ccc(-c2cccc(Cl)c2)cn1	52	94	8	IC50 (PBMC [9]): 5.5 µM; IC50 (PBMC [10]): 17.5 µM
N=C(N)Nc1cccc(-c2ccccc2)n1	18	100	3	IC50 (PBMC [9]): 18.6 µM; IC50 (PBMC [10]): > 30 µM
N=C(N)Nc1cc(-c2ccc(Cl)cc2)ccn1	69	24	97	–
N=C(N)Nc1cc(-c2ccccc2Cl)ccn1	65	42	23	–
COc1cccc(-c2cccc(NC(=N)N)n2)c1	7	104	2	–
N=C(N)Nc1cc(-c2cccc(Cl)c2)ccn1	64	38	53	–

Compound	inhibition at 10 µM (PBMC [1]) [%]	viability at 24 h, 10 µM [2] [%]	inhibition at 10 µM (PBMC [3]) [%]	further results
N=C(N)Nc1ccc(-c2ccc(Cl)cc2)cn1	72	23	97	–
COc1ccccc1-c1ccnc(NC(=N)N)c1	10	99	-1	–
NC1=Nc2cc(-c3ccccc3)ccc2CN1	76	81	93	IC50 (PBMC [9]): 1 µM; inhibition in vivo at 5 mg/kg (Mus musculus [11]): 62%; Activity (Mus musculus [5]): Non-Toxic; Activity (Mus musculus [12]): Active; IC50 (PBMC [10]): 3.7 µM; inhibition in vivo at 5 mg/kg (Mus musculus [13]): 63%; Activity (Mus musculus [7]): Active; Activity (Mus musculus [14]): Non-Toxic; inhibition in vivo at 5 mg/kg (Mus musculus [15]): 49%
N=C(N)Nc1cccc(-c2cccc(Cl)c2)n1	74	40	80	–
COc1ccccc1-c1ccc2c(c1)CNC(N)=N2	13	126	1	–
COc1ccc(-c2cccc(NC(=N)N)n2)cc1	27	94	-6	–
COc1ccc(-c2ccnc(NC(=N)N)c2)cc1	69	34	86	–
Nc1nc2ccc(-c3ccccc3)cc2[nH]1	15	114	3	–
NC1=Nc2cc(-c3ccccc3)ccc2CCN1	-7	100	-4	–
COc1ccc(C2CNC(=O)C2)cc1OC1CCCC1 (centres undefined) [ROLIPRAM]	79	104	–	IC50 (PBMC [9]): 0.13 µM
COc1ccc(-c2ccc(NC(=N)N)nc2)cc1	58	34	48	–
COc1ccccc1-c1ccc(NC(=N)N)nc1	56	78	4	IC50 (PBMC [9]): 7.7 µM; IC50 (PBMC [10]): > 30 µM
COc1ccccc1-c1cccc(NC(=N)N)n1	7	106	1	–
N=C(N)Nc1ccc(-c2ccccc2)cn1	-9	97	-1	–
N=C(N)Nc1cc(-c2ccccc2)ccn1	67	–	91	IC50 (PBMC [9]): 1.2 µM; inhibition in vivo at 5 mg/kg (Mus musculus [11]): 39%; IC50 (PBMC [10]): 5.8 µM; inhibition in vivo at 5 mg/kg (Mus musculus [13]): 52%; Activity (Mus musculus [8]): Active
COc1cccc(-c2ccnc(NC(=N)N)c2)c1	56	66	29	–
